Data reported in patent US9067881B2, “4-tolyl-ethynyl-octahydro-indole-1-ester derivatives” (NOVARTIS AG, priority 2011, dated 2015).
≈ marks a conversion by molar mass, not a printed value.

Columns and labels:
[1] = In-vitro clearance in human liver microsomes (metabolic stability, compound depletion)
[2] = In-vitro clearance in rat liver microsomes (metabolic stability, compound depletion)
[3] = Solubility in Cl free phosphate buffer pH 6.8; format: physicochemical; conditions: aqueous buffer; Cl free phosphate buffer (0.067 M) pH 6.8

| Compound | microsomal CLint at 1 μM [1] [µL/min/mg] | microsomal CLint at 1 μM [2] [µL/min/mg] | solubility [3] [µg/mL] |
| --- | --- | --- | --- |
| COC(=O)N1CC[C@@H]2[C@H]1CCC[C@]2(C#Cc1cccc(C)c1)OC(=O)CN(C)C [Example 1, (3aR,4S,7aR)-4-(2-Dimethylamino-acetoxy)-4-m-tolylethynyl-octahydro-indole-1-carboxylic acid methyl ester] | 14 | 195 |  |
| COC(=O)N1CC[C@@H]2[C@H]1CCC[C@@]2(O)C#Cc1cccc(C)c1 [Example 1.0, 4-hydroxy-4-m-tolylethynyl-octahydro-indole-1-carboxylic acid methyl ester, reference compound] | 113 | 277 | 51 (≈ 163 µM) |
| COC(=O)N1CC[C@@H]2[C@H]1CCC[C@]2(C#Cc1cccc(C)c1)OC(=O)CCCN(C)C [Example 3, (3aR,4S,7aR)-4-(4-Dimethylamino-butyryloxy)-4-m-tolylethynyl-octahydro-indole-1-carboxylic acid methyl ester] | 283 | 730 |  |
| CNCC(=O)O[C@@]1(C#Cc2cccc(C)c2)CCC[C@@H]2[C@H]1CCN2C(=O)OC [Example 7, (3aR,4S,7aR)-4-(2-Methylamino-acetoxy)-4-m-tolylethynyl-octahydro-indole-1-carboxylic acid methyl ester] | 433 | 346 |  |
| COC(=O)N1CC[C@@H]2[C@H]1CCC[C@]2(C#Cc1cccc(C)c1)OC(=O)CN [Example 8, (3aR,4S,7aR)-4-(2-Amino-acetoxy)-4-m-tolylethynyl-octahydro-indole-1-carboxylic acid methyl ester] | 187 | 87 | 125 (≈ 337 µM) |
| COC(=O)N1CC[C@@H]2[C@H]1CCC[C@]2(C#Cc1cccc(C)c1)OC(=O)[C@H](C)N [Example 9, (3aR,4S,7aR)-4-((S)-2-Amino-propionyloxy)-4-m-tolylethynyl-octahydro-indole-1-carboxylic acid methyl ester] | 315 | 355 |  |
| CCC(=O)O[C@@]1(C#Cc2cccc(C)c2)CCC[C@@H]2[C@H]1CCN2C(=O)OC [Example 14, (3aR,4S,7aR)-4-Propionyloxy-4-m-tolylethynyl-octahydro-indole-1-carboxylic acid methyl ester] |  | 3.4 | 9 (≈ 24.4 µM) |
| CCCCCCCCCCCCCC(=O)O[C@@]1(C#Cc2cccc(C)c2)CCC[C@@H]2[C@H]1CCN2C(=O)OC [Example 16, (3aR,4S,7aR)-4-Tetradecanoyloxy-4-m-tolylethynyl-octahydro-indole-1-carboxylic acid methyl ester] | 33 | 26 | < 2 |
| CCCCCCCCCCCC(=O)O[C@@]1(C#Cc2cccc(C)c2)CCC[C@@H]2[C@H]1CCN2C(=O)OC [Example 19, (3aR,4S,7aR)-4-Dodecanoyloxy-4-m-tolylethynyl-octahydro-indole-1-carboxylic acid methyl ester] |  | 32 | < 2 |
| CCCCCCCCCC(=O)O[C@@]1(C#Cc2cccc(C)c2)CCC[C@@H]2[C@H]1CCN2C(=O)OC [Example 20, (3aR,4S,7aR)-4-Decanoyloxy-4-m-tolylethynyl-octahydro-indole-1-carboxylic acid methyl ester] |  | 5.4 | < 2 |
| CCCCCCC(=O)O[C@@]1(C#Cc2cccc(C)c2)CCC[C@@H]2[C@H]1CCN2C(=O)OC [Example 23, (3aR,4S,7aR)-4-Heptanoyloxy-4-m-tolylethynyl-octahydro-indole-1-carboxylic acid methyl ester] |  | 3.4 | < 2 |
| CCCCCCCCC(=O)O[C@@]1(C#Cc2cccc(C)c2)CCC[C@@H]2[C@H]1CCN2C(=O)OC [Example 24, (3aR,4S,7aR)-4-Nonanoyloxy-4-m-tolylethynyl-octahydro-indole-1-carboxylic acid methyl ester] |  | 32 | < 2 |
| CCCCCCCCCCCCC(=O)O[C@@]1(C#Cc2cccc(C)c2)CCC[C@@H]2[C@H]1CCN2C(=O)OC [Example 25, (3aR,4S,7aR)-4-m-Tolylethynyl-4-tridecanoyloxy-octahydro-indole-1-carboxylic acid methyl ester] |  | 32 | < 2 |
| COC(=O)N1CC[C@@H]2[C@H]1CCC[C@]2(C#Cc1cccc(C)c1)OC(=O)[C@@H](N)Cc1ccccc1 [Example 31, (3aR,4S,7aR)-4-((S)-2-Amino-3-phenyl-propionyloxy)-4-m-tolylethynyl-octahydro-indole-1-carboxylic acid methyl ester] |  | 262 |  |
| CCC[C@H](N)C(=O)O[C@@]1(C#Cc2cccc(C)c2)CCC[C@@H]2[C@H]1CCN2C(=O)OC [Example 32, (3aR,4S,7aR)-4-((S)-2-Amino-pentanoyloxy)-4-m-tolylethynyl-octahydro-indole-1-carboxylic acid methyl ester] |  | 420 |  |
| CC[C@H](C)[C@H](N)C(=O)O[C@@]1(C#Cc2cccc(C)c2)CCC[C@@H]2[C@H]1CCN2C(=O)OC [Example 33, (3aR,4S,7aR)-4-((2S,3S)-2-Amino-3-methyl-pentanoyloxy)-4-m-tolylethynyl-octahydro-indole-1-carboxylic acid methyl ester] |  | 660 |  |
| COC(=O)N1CC[C@@H]2[C@H]1CCC[C@]2(C#Cc1cccc(C)c1)OC(=O)[C@@H](N)CC(C)(C)C [Example 34, (3aR,4S,7aR)-4-((S)-2-Amino-4,4-dimethyl-pentanoyloxy)-4-m-tolylethynyl-octahydro-indole-1-carboxylic acid methyl ester] |  | 495 |  |
| CN[C@@H](C)C(=O)O[C@@]1(C#Cc2cccc(C)c2)CCC[C@@H]2[C@H]1CCN2C(=O)OC [Example 35, (3aR,4S,7aR)-4-((S)-2-Methylamino-propionyloxy)-4-m-tolylethynyl-octahydro-indole-1-carboxylic acid methyl ester] |  | 50 |  |
| CN[C@H](C(=O)O[C@@]1(C#Cc2cccc(C)c2)CCC[C@@H]2[C@H]1CCN2C(=O)OC)C(C)C [Example 36, (3aR,4S,7aR)-4-((S)-3-Methyl-2-methylamino-butyryloxy)-4-m-tolylethynyl-octahydro-indole-1-carboxylic acid methyl ester] |  | 815 |  |
| CC[C@H](C)[C@H](NC)C(=O)O[C@@]1(C#Cc2cccc(C)c2)CCC[C@@H]2[C@H]1CCN2C(=O)OC [Example 37, (3aR,4S,7aR)-4-((2S,3S)-3-Methyl-2-methylamino-pentanoyloxy)-4-m-tolylethynyl-octahydro-indole-1-carboxylic acid methyl ester] |  | 693 |  |
| COC(=O)N1CC[C@@H]2[C@H]1CCC[C@]2(C#Cc1cccc(C)c1)OC(=O)CCN [Example 40, (3aR,4S,7aR)-methyl 4-(3-aminopropanoyloxy)-4-(m-tolylethynyl)octahydro-1H-indole-1-carboxylate] | 36 | 302 |  |
| COC(=O)N1CC[C@@H]2[C@H]1CCC[C@]2(C#Cc1cccc(C)c1)OC(=O)Cc1ccccc1 [Example 43, (3aR,4S,7aR)-methyl 4-(2-phenylacetoxy)-4-(m-tolylethynyl)octahydro-1H-indole-1-carboxylate] |  | 36 |  |
| COC(=O)N1CC[C@@H]2[C@H]1CCC[C@]2(C#Cc1cccc(C)c1)OC(=O)c1ccncc1 [Example 45, (3aR,4S,7aR)-methyl 4-(isonicotinoyloxy)-4-(m-tolylethynyl)octahydro-1H-indole-1-carboxylate] |  | 385 | < 2 |
| COC(=O)N1CC[C@@H]2[C@H]1CCC[C@]2(C#Cc1cccc(C)c1)OC(=O)c1cccc(C)c1 [Example 46, (3aR,4S,7aR)-methyl 4-(3-methylbenzoyloxy)-4-(m-tolylethynyl)octahydro-1H-indole-1-carboxylate] |  | 4.4 |  |
| COC(=O)N1CC[C@@H]2[C@H]1CCC[C@]2(C#Cc1cccc(C)c1)OC(=O)c1ccc(Br)cc1 [Example 48, (3aR,4S,7aR)-methyl 4-(4-bromobenzoyloxy)-4-(m-tolylethynyl)octahydro-1H-indole-1-carboxylate] |  | 26 |  |
| COC(=O)N1CC[C@@H]2[C@H]1CCC[C@]2(C#Cc1cccc(C)c1)OC(=O)c1cccnc1 [Example 51, (3aR,4S,7aR)-methyl 4-(nicotinoyloxy)-4-(m-tolylethynyl)octahydro-1H-indole-1-carboxylate] |  | 478 | < 2 |
| COC(=O)N1CC[C@@H]2[C@H]1CCC[C@]2(C#Cc1cccc(C)c1)OC(=O)c1c(C)cc(C)cc1C [Example 53, (3aR,4S,7aR)-methyl 4-(m-tolylethynyl)-4-(2,4,6-trimethylbenzoyloxy)octahydro-1H-indole-1-carboxylate] |  | 3.4 |  |
| COC(=O)N1CC[C@@H]2[C@H]1CCC[C@]2(C#Cc1cccc(C)c1)OC(=O)c1ccccn1 [Example 54, (3aR,4S,7aR)-4-(Pyridine-2-carbonyloxy)-4-m-tolylethynyl-octahydro-indole-1-carboxylic acid methyl ester] |  | 167 | 2 (≈ 4.78 µM) |
| CCCN(CCC)C(=O)CCC(=O)O[C@@]1(C#Cc2cccc(C)c2)CCC[C@@H]2[C@H]1CCN2C(=O)OC [Example 63, (3aR,4S,7aR)-methyl 4-(4-(dipropylamino)-4-oxobutanoyloxy)-4-(m-tolylethynyl)octahydro-1H-indole-1-carboxylate] |  | 26 | 43 (≈ 86.6 µM) |
